Assay results as given in patent US20120283245A1, “AZABICYCLO[3.1.0]HEX-2-YL COMPOUNDS, A PROCESS FOR THEIR PREPARATION AND PHARMACEUTICAL COMPOSITIONS CONTAINING THEM” (LES LABORATOIRES SERVIER, priority 2009, published 2012).
Counter-ions that a name gives are not always drawn.

Biological target: T1, type H3 central histamine receptors (Mus musculus, UniProt P58406)
T1 construct: from tissue; host or cells: brain of living NMRI mice (oral dosing)
Assay: Cerebral levels of Nτ-methylhistamine in the NMRI mouse (ex vivo)
Details: 3 mg/kg PO, one hour after treatment, versus carrier controls
Experimental: The purpose of this study, which was carried out in accordance with the method of Taylor et al. (Biochem. Pharm., 1992, 44, 1261-1267), is to evaluate the ex vivo activity of the compounds of the present invention as antagonists of type H3 central histamine receptors. […] An increase in the cerebral concentrations of N^τ-methylhistamine indicates an increase in to the turn-over of histamine by blockage of the type H3 central histamine receptors. NMRI mice (18-20 g) are treated with compounds of the present invention or with their carrier (20 ml/kg) by the oral route. One hour after the pharmacological treatment, the animals are sacrificed; the brains are removed, frozen in liquid nitrogen, weighed and homogenised in 0.1N HClO4 at 4° C. The homogenised products are centrifuged (15000 g, 17 mins., 4° C.). The supernatants are recovered and divided into aliquots. The aliquots are frozen in liquid nitrogen and stored at −80° C. until they are analysed. Determination of the cerebral levels of N^τ-methylhistamine is carried out by capillary electrophoresis. The tissue levels of N^τ-methylhistamine are expressed in μg/g of fresh brain. The comparison of the cerebral levels of N^τ-methylhistamine between animals treated with the carrier (controls) and animals treated with compounds of the present invention is carried out by single-factor variance analysis followed, if necessary, by a complementary analysis (Dunnett's test).

T1 sequence (P58406 whole entry): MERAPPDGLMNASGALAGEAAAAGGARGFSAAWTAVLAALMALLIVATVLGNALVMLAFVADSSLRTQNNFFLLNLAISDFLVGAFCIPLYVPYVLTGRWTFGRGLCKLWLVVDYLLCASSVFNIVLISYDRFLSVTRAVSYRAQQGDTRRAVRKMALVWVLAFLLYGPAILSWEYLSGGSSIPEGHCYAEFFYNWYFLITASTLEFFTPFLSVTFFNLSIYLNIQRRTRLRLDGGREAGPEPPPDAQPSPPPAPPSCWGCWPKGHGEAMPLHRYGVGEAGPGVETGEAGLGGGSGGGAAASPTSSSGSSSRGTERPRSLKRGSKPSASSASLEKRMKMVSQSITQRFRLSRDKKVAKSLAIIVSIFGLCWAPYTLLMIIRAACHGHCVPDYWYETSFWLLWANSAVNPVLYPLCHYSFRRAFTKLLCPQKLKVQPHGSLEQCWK

Row | Compound | increase of endogenous cerebral concentrations of Nτ-methylhistamine
1 | CC(=O)Nc1ccc(OCCCN2CC[C@H]3C[C@H]32)cc1 (relative stereo) [Example 3, N-(4-{3-(cis-2-azabicyclo[3.1.0]hex-2-yl)propoxy}phenyl)acetamide hydrochloride] | +272%
2 | CC(=O)Nc1ccc(OCCN2CC[C@H]3C[C@H]32)cc1.Cl (relative stereo) [Example 4, N-(4-{2-(cis-2-azabicyclo[3.1.0]hex-2-yl)ethoxy}phenyl)acetamide hydrochloride] | +221%

More lines, now with the values ahead:

Row | increase of endogenous cerebral concentrations of Nτ-methylhistamine | Compound
3 | +377% | CNC(=O)c1ccc(OCCCN2CC[C@H]3C[C@H]32)cc1.Cl (relative stereo) [Example 7, 4-{3-(cis-2-Azabicyclo[3.1.0]hex-2-yl)propoxy}-N-methylbenzamide hydrochloride]
4 | +250% | COCC(=O)Nc1ccc(OCCCN2CC[C@H]3C[C@H]32)cc1 (relative stereo) [Example 9, N-(4-{3-(cis-2-azabicyclo[3.1.0]hex-2-yl)propoxy}phenyl)-2-methoxy-acetamide hydrochloride]
5 | +225% | CCN(CC)C(=O)c1ccc(OCCCN2CC[C@H]3C[C@H]32)cc1.Cl (relative stereo) [Example 6, 4-{3-(cis-2-Azabicyclo[3.1.0]hex-2-yl)propoxy}-N,N-diethylbenzamide hydrochloride]
6 | +276% | CC(=O)N(C)c1ccc(OCCCN2CC[C@H]3C[C@H]32)cc1.Cl (relative stereo) [Example 8, N-(4-{3-(cis-2-azabicyclo[3.1.0]hex-2-yl)propoxy}phenyl)-N-methyl-acetamide hydrochloride]

Biological target: T2, type H3 mouse histamine receptors (Mus musculus, UniProt P58406)
T2 construct: expressed in transfected cells; host or cells: CHO cells
Assay: Affinity for mouse H3 receptors (iodoproxyfan displacement, transfected CHO cells)
Format: binding
Details: mouse H3 receptors transfected into CHO cells, iodoproxyfan radioligand, 24 h at room temperature
Experimental: The purpose is to measure the affinity of compounds of the present invention for type H3 mouse histamine receptors transfected into CHO cells. The compounds are incubated at different concentrations in the presence of transfected CHO cells, iodoproxyfan as a radiolabelled ligand which is specific for H3 receptors, and scintillant beads for 24 h at room temperature. At the end of the incubation, the displacement of the specific binding of the ligand by the compounds under test is measured, and the affinity constants of those compounds for mouse H3 receptors are determined

T2 sequence (P58406 whole entry): as above

Row | Ki [nM] | Compound
7 | 2400 | NC(=O)c1ccc(OCCCN2CC[C@H]3C[C@H]32)cc1 (racemic) [Example 1, 4-[3-(cis-2-Azabicyclo[3.1.0]hex-2-yl)propoxy]-benzamide hydrochloride]
8 | 390 | COCC(=O)Nc1ccc(OCCCN2CC[C@H]3C[C@H]32)cc1 (racemic) [Example 9, N-(4-{3-(cis-2-azabicyclo[3.1.0]hex-2-yl)propoxy}phenyl)-2-methoxy-acetamide hydrochloride]
9 | 180 | CN(C)C(=O)c1ccc(OCCCN2CC[C@H]3C[C@H]32)cc1 (racemic) [Example 5, 4-{3-(cis-2-Azabicyclo[3.1.0]hex-2-yl)propoxy}-N,N-dimethylbenzamide hydrochloride]
10 | 750 | CC(=O)Nc1ccc(OCCCN2CC[C@H]3C[C@H]32)cc1 (racemic) [Example 3, N-(4-{3-(cis-2-azabicyclo[3.1.0]hex-2-yl)propoxy}phenyl)acetamide hydrochloride]
